# Experimental data taken from patent publication US20220023317A1, “PREVENTING OR MITIGATING CHEMOTHERAPY INDUCED ALOPECIA USING VITAMIN D” (Berg LLC, priority 2013, published 2022).
# Read-outs that look alike come from different tables or passages of the source.
# Columns and labels:
# [1] = system: Long Evans and Sprague Dawley rats
# Method: Specifically, Long Evans and Sprague Dawley rats with pups were purchased from Harlan Laboratories, Inc. They were housed and fed according to applicable animal handling rules and regulations. Pups were allowed to acclimate for 48 hours prior to the start of experiments. […] Rats were isolated from their littermates and mother for 6-hour periods of time. Subsequently, the treated area was cleaned with soap and water and pups were returned to their litters. On day 13, rats either received etoposide (1.5 mg/kg daily for 3 days) or cyclophosphamide (CTX) (37.5 mg/kg once) or combination cyclophosphamide (35 mg/kg once) and doxorubicin (2.5 mg/kg daily for 3 days). All chemotherapies were purchased from Sigma and were given intraperitoneally (i.p.) in a total volume of 0.1 mL. Alopecia was recorded 10 days after the last dose of chemotherapy.
# guinea pigs = assay: Skin sensitization study; format: in vivo, guinea pig; conditions: calcitriol at 5.7 μg/g, topical patch induction and challenge
# Method: Induction phase. […] The induction exposure was repeated at the same skin site once a week for 2 weeks. The vehicle and positive control groups composed of 5 male and 5 female guinea pigs, each of which were exposed in the same manner as the treatment group to propylene glycol/anhydrous ethanol or hexylcinnamic aldehyde (a known mild to moderate skin-sensitizer), respectively. Skin reactions were scored and recorded at approximately 24 hours after patch removal during the induction phase. After the last induction exposure, the animals remained untreated for two weeks before the challenge exposure.
# Challenge phase. The challenge exposure was conducted two weeks after the final topical induction. The test article was topically applied to the Vehicle Control and Test Group at the concentration determined to be non-irritating in the irritation screen. The Vehicle Control Group was also challenged with the Vehicle. The Positive Control Groups received the positive control article. The challenge application sites were scored at approximately 24 and 48 hours after patch removal.
# HEKa cells = assay: 2-D gel electrophoresis proteomic analysis of calcitriol-treated HEKa; format: cell-based, human; conditions: 0.1 μg/mL
# Method: The cell pellets were then analyzed using proteomic methods, such as 2-D gel and Western blot analysis. […] In all, analysis of about 458 protein spots in the comparative study was performed, comparing the control sample against the 3-, 6-, and 24-hour treatment samples. Six spots showing statistically significant differential changes were identified. These spots were excised, and their protein contents subjected to sequence identification by trypsin digestion and mass spectrometry characterization.
# [2] = Preliminary animal toxicology study; format: in vivo; conditions: dose of about 100 μg
# NCI-ES-0808 = assay: Cell growth / viability assay; format: cell-based
# [3] = system: EMT-6 murine breast tumor; conditions: male mice, topical calcitriol before i.p. cyclophosphamide; cited from earlier work
# [4] = 4-week dermal toxicity study in Gottingen Minipigs; conditions: both, Gottingen, minipig, in vivo
# Method: (§1) Observations for morbidity, mortality, injury, and the availability of food and water were conducted twice daily for all animals. Clinical observations were conducted weekly.
# Gottingen Minipig = assay: 4-week dermal toxicity study in Gottingen Minipigs; conditions: dermal, twice daily, 29 days, 2.1 mL over 450 cm^2
# Method: as §1
# PaCa2 = assay: Cell growth / viability assay; format: cell-based
# Long Evans Rats = assay: Alopecia in chloroleukemic Long Evans rats receiving multi-course chemotherapy; format: in vivo, rat; conditions: for extent of alopecia (grade): all rats
# Text: Animals were then randomized in four groups.
# Treatments were started on day 6 after birth.
# Unused preparations were disposed of.
# BALB/c mice = conditions: cited from earlier work
# [5] = system: MIAC51 (chloroleukemia cells); assay: Rats transplanted with chloroleukemia MIAC51, CTX with topical calcitriol; format: in vivo, rat; conditions: cyclophosphamide, preliminary results
# Method: For experiments in which rats were transplanted with chloroleukemia, on Day 5 after birth, rats were randomly divided into three groups of 45 each. All rats received 1×10^5 chloroleukemic cell line MIAC51 (i.p.) in 0.1 mL of serum free (SF) RPMI. MIAC51 were cultured in RPMI 1640 supplemented with L-glutamine and 10% fetal bovine serum at 37° C. in a 5% CO2, 100% humidity incubator. Cells were grown to 50% confluency (1.5×106 mL) collected in 50 mL conical tubes, centrifuged at 600 g×10 min. at room temperature and resuspended in SF-RPMI at a concentration of 1×10^6/mL. Group 1 rats received no further treatment. Group 2 rats received topical vehicle and CTX on day 13. […] Topical applications were performed as described above.
# On day 23 after birth, a sample of blood was taken from all rats and differentials performed. Rats with leukemia were sacrificed, rats without leukemia were kept and a second differential performed on day 31, at any point if leukemia was detected, animals were sacrificed by CO2 asphyxiation.
# SkBr-3 = assay: Cell growth / viability assay; format: cell-based
smiles,measurement,setting,value
"C=C1/C(=C\C=C2/CCC[C@]3(C)[C@@H]([C@H](C)CCCC(C)(C)O)CC[C@@H]23)C[C@@H](O)C[C@@H]1O [Calcitriol, (1a.3B.5Z.7E)-9,10-secocholesta-5,7,10(19)-triene-1,3,25-triol]",protection from etoposide-induced alopecia,"[1]; 0.1 μg of calcitriol topical for 6 hours, daily x6, etoposide 1.5 mg/kg x3",partial localized protection
same,protection from cyclophosphamide-induced alopecia,[1]; 0.3 μg calcitriol topical,full body protection
same,protection from etoposide-induced alopecia,[1]; 0.3 μg calcitriol topical,total body protection
same,skin sensitization,guinea pigs,not determined to be a sensitizer
same,S100 A9 (Calprotectin) Response,HEKa cells; full cell: down at 6 and 24 hours,down at 6
same,Keratin 17 Response,HEKa cells; full cell: down at 24 hours,down at
same,Glutathione S-transferase (GST) Response,"HEKa cells; full cell: up at 3, 6, and 24 hours","up at 3, 6,"
same,dermal irritation,[2],no dermal irritation
same,skin penetration,[2],excellent epidermal penetration without substantial dermal penetration
same,effect of calcitriol on cell growth,NCI-ES-0808,no significant growth promoting or growth inhibiting effects
same,effect of calcitriol on cytotoxic effect of Doxorubicin,NCI-ES-0808,did not appear to appreciably alter
same,rate of tumor growth vs either agent alone,[3],greater reduction in the rate of tumor growth
same,NOAEL at 29 days,[4],3.33 µg/kg
same,no-observed-adverse-effect-level (NOAEL),Gottingen Minipig,10.31 µg/mL
same,effect of calcitriol on cell growth,PaCa2,no significant growth promoting or growth inhibiting effects
same,effect of calcitriol on cytotoxic effect of Doxorubicin,PaCa2,did not appear to appreciably alter
same,"response to doxorubicin, cisplatin, erlotinib after calcitriol exposure",PaCa2; 0.1 μg/mL calcitriol for two passages,did not alter
same,5-FU ED50 curve with vs without calcitriol,PaCa2; 0.1 μg/mL calcitriol supplement,not significantly different
same,extent of alopecia (grade),"Long Evans Rats; ADM + paclitaxel + etoposide, first round",did not exhibit any signs of alopecia
same,rats with alopecia grade 0 (number),"Long Evans Rats; ADM + paclitaxel + etoposide, second round, topical calcitriol, of 32",32
same,extent of alopecia (grade),"Long Evans Rats; CTX + ADM + ARA-C, first round",did not exhibit any signs of alopecia
same,rats with alopecia grade 0 (number),"Long Evans Rats; CTX + ADM + ARA-C, second round, topical calcitriol, of 31",31
same,rats with alopecia grade 0 (number),"Long Evans Rats; CTX + ADM + cytarabine (ARA-C), first round, topical calcitriol 2 μg/mL, of 40",40
same,extent of alopecia (grade),"Long Evans Rats; CTX + ADM, first round",did not exhibit any signs of alopecia
same,rats with alopecia grade 0 (number),"Long Evans Rats; CTX + ADM, second round, topical calcitriol, of 20",20
same,rats with alopecia grade 0 (number),"Long Evans Rats; CTX + doxorubicin (ADM), first round, topical calcitriol 2 μg/mL, of 40",40
same,extent of alopecia (grade),"Long Evans Rats; CTX + paclitaxel + etoposide, first round",did not exhibit any signs of alopecia
same,rats with alopecia grade 0 (number),"Long Evans Rats; CTX + paclitaxel + etoposide, first round, topical calcitriol 2 μg/mL, of 40",40
same,rats with alopecia grade 0 (number),"Long Evans Rats; CTX + paclitaxel + etoposide, second round, topical calcitriol, of 33",33
same,extent of alopecia (grade),"Long Evans Rats; CTX, first round of chemotherapy",did not exhibit any signs of alopecia
same,rats with alopecia grade 0 (number),"Long Evans Rats; CTX, first round of chemotherapy, topical calcitriol 2 μg/mL 0.1 mL daily x6, 0 = no alopecia, of 40",40
same,rats with alopecia grade 0 (number),"Long Evans Rats; CTX, second round of chemotherapy, topical calcitriol days 40-45, of 10",10
same,rats with alopecia grade 0 (number),"Long Evans Rats; Doxorubicin (ADM) + paclitaxel + etoposide, first round, topical calcitriol 2 μg/mL, of 40",40
same,protection from CIA,"Long Evans Rats; calcitriol 2 μg/mL, each of five chemotherapy regimens, first and second cycles",100%
same,protection from CIA,"Long Evans Rats; cyclophosphamide and doxorubicin group, both cycles",100%
same,protection from CIA,"Long Evans Rats; cyclophosphamide group, both cycles",100%
same,protection from CIA,"Long Evans Rats; cyclophosphamide, doxorubicin and cytarabine group, both cycles",100%
same,protection from CIA,"Long Evans Rats; cyclophosphamide, paclitaxel and etoposide group, both cycles",100%
same,protection from CIA,"Long Evans Rats; doxorubicin, paclitaxel and etoposide group, both cycles",100%
same,protective effect in tumor-bearing male mice,BALB/c mice; injected with EMT-6 murine breast tumor cells,diminished
same,degree of CIA,"BALB/c mice; male mice, topical 5 days prior to i.p. cyclophosphamide",significantly reduced the degree of CIA in a dose-dependent manner
same,protection of the cancer cells from chemotherapy,[5],have not shown protection of the cancer cells
same,effect of calcitriol on cell growth,SkBr-3,no significant growth promoting or growth inhibiting effects
same,effect of calcitriol on cytotoxic effect of Doxorubicin,SkBr-3,did not appear to appreciably alter
